From the kinase profiling compilation of Christmann-Franck et al. (2016)

What was measured:
Experiment in all cases: radiometric filter-binding kinase assay, Kinase HotSpot
Details in all cases: compound 0.5 µM; ATP 10 µM
PLK2 (human) = PLK2 (human) (UniProt Q9NYY3)
HIPK2 (human) = HIPK2 (human) (UniProt Q9H2X6)
MARK1 (human) = MARK1 (human) (UniProt Q9P0L2)
CDK3 CCNE1 (human) = CDK3 CCNE1 (human) (UniProt Q00526+P24864)
[1] = molecular target: JAK1 JH1 catalytic (human) (UniProt P23458)
NUAK1 (human) = NUAK1 (human) (UniProt O60285)
CHUK (human) = CHUK (human) (UniProt O15111)
MKNK2 (human) = MKNK2 (human) (UniProt Q9HBH9)
HIPK1 (human) = HIPK1 (human) (UniProt Q86Z02)
TTK (human) = TTK (human) (UniProt P33981)
TEC (human) = TEC (human) (UniProt P42680)
EGFR (human) = EGFR (human) (UniProt P00533)
MAPK10 (human) = MAPK10 (human) (UniProt P53779)
CAMKK2 (human) = CAMKK2 (human) (UniProt Q96RR4)
MATK (human) = MATK (human) (UniProt P42679)
EPHB2 (human) = EPHB2 (human) (UniProt P29323)
STK24 (human) = STK24 (human) (UniProt Q9Y6E0)
CDC42BPA (human) = CDC42BPA (human) (UniProt Q5VT25)
TAOK2 (human) = TAOK2 (human) (UniProt Q9UL54)
GRK5 (human) = GRK5 (human) (UniProt P34947)
AKT3 (human) = AKT3 (human) (UniProt Q9Y243)
TAOK3 (human) = TAOK3 (human) (UniProt Q9H2K8)
ERBB4 (human) = ERBB4 (human) (UniProt Q15303)
INSRR (human) = INSRR (human) (UniProt P14616)
CAMK1D (human) = CAMK1D (human) (UniProt Q8IU85)
PTK6 (human) = PTK6 (human) (UniProt Q13882)
RPS6KA1 KD1 KD2 (human) = RPS6KA1 KD1 KD2 (human) (UniProt Q15418)
PAK6 (human) = PAK6 (human) (UniProt Q9NQU5)
DYRK2 (human) = DYRK2 (human) (UniProt Q92630)
CSNK1A1 (human) = CSNK1A1 (human) (UniProt P48729)
PHKG1 (human) = PHKG1 (human) (UniProt Q16816)
GRK6 (human) = GRK6 (human) (UniProt P43250)
NEK1 (human) = NEK1 (human) (UniProt Q96PY6)
GRK7 (human) = GRK7 (human) (UniProt Q8WTQ7)
CAMK2D (human) = CAMK2D (human) (UniProt Q13557)
CSNK1G2 (human) = CSNK1G2 (human) (UniProt P78368)
CDK7 CCNH MNAT1 (human) = CDK7 CCNH MNAT1 (human) (UniProt P50613+P51948+P51946)

PHKG1 (human), sequence (Q16816 whole entry, looked up): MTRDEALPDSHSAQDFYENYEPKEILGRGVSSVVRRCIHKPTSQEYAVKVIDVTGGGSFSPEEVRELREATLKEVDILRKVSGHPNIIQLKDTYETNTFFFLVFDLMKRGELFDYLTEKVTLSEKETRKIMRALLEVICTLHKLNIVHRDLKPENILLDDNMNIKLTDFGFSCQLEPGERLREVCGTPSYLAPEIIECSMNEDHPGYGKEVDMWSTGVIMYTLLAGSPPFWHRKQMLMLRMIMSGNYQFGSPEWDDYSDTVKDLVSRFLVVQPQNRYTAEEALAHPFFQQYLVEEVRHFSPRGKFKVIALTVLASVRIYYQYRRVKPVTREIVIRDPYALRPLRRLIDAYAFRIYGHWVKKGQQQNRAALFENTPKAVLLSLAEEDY
MKNK2 (human), sequence (Q9HBH9 whole entry, looked up): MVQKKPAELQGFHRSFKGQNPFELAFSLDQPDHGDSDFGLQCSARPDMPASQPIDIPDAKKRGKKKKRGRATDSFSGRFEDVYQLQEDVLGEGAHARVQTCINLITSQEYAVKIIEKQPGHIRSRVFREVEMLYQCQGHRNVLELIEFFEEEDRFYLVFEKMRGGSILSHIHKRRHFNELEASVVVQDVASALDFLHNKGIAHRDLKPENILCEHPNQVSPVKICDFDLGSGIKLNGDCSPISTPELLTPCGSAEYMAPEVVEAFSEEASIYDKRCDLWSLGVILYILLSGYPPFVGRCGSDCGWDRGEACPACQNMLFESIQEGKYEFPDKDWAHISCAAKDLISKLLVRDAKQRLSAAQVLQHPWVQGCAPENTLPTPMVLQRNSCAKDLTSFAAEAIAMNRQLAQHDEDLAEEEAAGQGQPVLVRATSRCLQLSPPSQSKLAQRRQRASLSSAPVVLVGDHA
EGFR (human), sequence (P00533 whole entry, looked up): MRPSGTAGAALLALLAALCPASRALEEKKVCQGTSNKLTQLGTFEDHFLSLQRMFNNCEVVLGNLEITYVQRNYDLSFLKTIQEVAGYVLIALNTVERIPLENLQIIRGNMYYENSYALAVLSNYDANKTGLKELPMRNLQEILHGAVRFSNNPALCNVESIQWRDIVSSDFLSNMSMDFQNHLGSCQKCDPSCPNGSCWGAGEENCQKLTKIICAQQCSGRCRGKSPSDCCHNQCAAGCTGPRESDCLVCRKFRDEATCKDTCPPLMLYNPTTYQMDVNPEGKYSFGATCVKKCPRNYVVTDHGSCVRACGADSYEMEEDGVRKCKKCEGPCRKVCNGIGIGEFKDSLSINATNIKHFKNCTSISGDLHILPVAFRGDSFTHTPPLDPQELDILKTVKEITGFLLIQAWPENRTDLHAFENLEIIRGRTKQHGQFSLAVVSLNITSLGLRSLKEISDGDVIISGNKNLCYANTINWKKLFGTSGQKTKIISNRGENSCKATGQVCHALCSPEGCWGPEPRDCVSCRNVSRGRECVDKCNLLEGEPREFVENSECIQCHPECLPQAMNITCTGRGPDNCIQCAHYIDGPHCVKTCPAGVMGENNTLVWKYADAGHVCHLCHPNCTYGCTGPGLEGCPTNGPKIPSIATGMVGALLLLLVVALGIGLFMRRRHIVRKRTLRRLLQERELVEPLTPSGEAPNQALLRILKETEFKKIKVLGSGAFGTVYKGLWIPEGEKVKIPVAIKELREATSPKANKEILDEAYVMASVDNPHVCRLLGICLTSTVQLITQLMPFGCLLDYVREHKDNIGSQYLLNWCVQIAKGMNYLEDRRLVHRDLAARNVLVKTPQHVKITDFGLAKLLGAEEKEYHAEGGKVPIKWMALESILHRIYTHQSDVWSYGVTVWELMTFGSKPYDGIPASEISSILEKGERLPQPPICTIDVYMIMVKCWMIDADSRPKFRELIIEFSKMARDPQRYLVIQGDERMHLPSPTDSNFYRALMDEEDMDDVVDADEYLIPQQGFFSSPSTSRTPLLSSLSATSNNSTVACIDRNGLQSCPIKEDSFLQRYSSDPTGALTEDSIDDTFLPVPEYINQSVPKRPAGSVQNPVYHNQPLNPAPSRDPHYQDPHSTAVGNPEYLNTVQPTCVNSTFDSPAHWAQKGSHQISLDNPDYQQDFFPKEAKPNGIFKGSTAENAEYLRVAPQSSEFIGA
TAOK2 (human), sequence (Q9UL54 whole entry, looked up): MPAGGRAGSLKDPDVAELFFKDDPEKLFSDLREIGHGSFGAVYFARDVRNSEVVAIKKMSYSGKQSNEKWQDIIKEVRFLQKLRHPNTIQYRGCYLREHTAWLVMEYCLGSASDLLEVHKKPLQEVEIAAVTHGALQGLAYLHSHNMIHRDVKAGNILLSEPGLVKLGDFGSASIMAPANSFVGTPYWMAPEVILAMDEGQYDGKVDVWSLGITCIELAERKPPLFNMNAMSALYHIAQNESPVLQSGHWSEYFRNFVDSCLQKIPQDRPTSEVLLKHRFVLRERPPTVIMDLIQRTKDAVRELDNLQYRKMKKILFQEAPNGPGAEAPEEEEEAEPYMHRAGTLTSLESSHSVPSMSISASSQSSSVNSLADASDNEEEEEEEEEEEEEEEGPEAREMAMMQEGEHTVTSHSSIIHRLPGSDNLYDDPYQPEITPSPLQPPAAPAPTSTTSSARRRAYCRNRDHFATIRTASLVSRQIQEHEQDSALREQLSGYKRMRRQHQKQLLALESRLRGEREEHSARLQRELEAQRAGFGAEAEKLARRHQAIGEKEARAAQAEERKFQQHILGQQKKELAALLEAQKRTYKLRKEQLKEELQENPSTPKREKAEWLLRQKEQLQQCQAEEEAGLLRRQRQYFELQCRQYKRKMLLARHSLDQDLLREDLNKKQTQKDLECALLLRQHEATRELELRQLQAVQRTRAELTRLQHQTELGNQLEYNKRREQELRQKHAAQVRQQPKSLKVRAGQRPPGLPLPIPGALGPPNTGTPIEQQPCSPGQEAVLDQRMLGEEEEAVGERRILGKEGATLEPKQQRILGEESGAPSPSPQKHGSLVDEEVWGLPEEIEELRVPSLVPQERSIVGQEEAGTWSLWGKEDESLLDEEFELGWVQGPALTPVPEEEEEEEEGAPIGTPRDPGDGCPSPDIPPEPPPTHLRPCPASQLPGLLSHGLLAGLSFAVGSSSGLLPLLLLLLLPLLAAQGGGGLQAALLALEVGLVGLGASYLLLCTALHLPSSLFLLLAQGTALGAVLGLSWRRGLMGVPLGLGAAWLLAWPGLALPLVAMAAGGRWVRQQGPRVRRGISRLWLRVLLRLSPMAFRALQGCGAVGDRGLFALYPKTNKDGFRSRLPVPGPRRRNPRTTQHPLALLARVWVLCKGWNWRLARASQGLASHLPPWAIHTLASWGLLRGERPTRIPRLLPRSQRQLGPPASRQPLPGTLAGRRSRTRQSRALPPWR
STK24 (human), sequence (Q9Y6E0 whole entry, looked up): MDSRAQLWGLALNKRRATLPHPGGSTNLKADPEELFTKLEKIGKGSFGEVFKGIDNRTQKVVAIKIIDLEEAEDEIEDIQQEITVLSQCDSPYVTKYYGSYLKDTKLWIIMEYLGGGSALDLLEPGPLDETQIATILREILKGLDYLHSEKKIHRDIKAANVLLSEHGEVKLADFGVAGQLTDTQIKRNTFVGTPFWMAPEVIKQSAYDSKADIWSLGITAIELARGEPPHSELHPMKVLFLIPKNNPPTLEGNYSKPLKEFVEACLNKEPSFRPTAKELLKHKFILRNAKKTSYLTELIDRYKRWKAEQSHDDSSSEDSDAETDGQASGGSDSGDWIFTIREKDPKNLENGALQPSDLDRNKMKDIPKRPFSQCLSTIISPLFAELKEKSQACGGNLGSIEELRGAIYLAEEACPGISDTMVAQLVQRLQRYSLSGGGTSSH
RPS6KA1 KD1 KD2 (human), sequence (Q15418 whole entry, looked up): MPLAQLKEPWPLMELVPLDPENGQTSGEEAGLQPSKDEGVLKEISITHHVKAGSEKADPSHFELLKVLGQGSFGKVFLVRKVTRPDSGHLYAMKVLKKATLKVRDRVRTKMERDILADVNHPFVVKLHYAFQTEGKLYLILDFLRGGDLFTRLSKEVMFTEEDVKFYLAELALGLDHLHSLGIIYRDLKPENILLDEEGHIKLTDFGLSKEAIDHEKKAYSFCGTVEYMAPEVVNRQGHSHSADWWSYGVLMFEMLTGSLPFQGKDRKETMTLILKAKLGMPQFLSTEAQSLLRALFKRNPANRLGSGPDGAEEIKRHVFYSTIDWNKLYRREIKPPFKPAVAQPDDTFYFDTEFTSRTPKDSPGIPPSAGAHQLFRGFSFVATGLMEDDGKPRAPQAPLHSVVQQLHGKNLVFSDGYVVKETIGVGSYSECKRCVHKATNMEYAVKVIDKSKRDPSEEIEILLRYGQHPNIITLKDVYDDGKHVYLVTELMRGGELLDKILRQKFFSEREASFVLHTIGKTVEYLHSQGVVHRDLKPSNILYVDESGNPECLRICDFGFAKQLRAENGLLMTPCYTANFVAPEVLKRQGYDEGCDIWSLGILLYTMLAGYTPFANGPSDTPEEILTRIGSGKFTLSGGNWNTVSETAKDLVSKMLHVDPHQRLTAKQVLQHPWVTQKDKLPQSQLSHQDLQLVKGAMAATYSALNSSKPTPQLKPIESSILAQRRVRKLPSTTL
DYRK2 (human), sequence (Q92630 whole entry, looked up): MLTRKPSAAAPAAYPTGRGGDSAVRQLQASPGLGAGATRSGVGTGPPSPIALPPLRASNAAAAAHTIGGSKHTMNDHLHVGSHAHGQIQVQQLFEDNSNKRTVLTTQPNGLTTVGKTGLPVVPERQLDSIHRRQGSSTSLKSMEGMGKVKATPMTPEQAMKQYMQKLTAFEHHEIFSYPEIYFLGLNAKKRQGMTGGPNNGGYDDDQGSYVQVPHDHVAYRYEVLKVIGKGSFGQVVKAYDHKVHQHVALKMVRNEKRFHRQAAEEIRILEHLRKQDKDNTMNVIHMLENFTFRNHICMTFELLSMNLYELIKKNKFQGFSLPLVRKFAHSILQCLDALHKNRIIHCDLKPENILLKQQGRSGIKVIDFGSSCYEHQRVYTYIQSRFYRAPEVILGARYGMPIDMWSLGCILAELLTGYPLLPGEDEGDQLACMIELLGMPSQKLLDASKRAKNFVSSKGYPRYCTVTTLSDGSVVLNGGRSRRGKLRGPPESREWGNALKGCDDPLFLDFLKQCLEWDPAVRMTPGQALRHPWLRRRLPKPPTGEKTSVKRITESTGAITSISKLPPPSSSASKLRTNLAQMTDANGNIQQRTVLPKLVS

Row | SMILES | residual activity (PLK2 (human)) [%] | residual activity (HIPK2 (human)) [%] | residual activity (MARK1 (human)) [%] | residual activity (CDK3 CCNE1 (human)) [%] | residual activity [1] [%] | residual activity (CHUK (human)) [%] | residual activity (MKNK2 (human)) [%] | residual activity (HIPK1 (human)) [%] | residual activity (TTK (human)) [%] | residual activity (TEC (human)) [%] | residual activity (MAPK10 (human)) [%] | residual activity (CAMKK2 (human)) [%] | residual activity (MATK (human)) [%] | residual activity (EPHB2 (human)) [%] | residual activity (STK24 (human)) [%] | residual activity (CDC42BPA (human)) [%] | residual activity (TAOK2 (human)) [%] | residual activity (GRK5 (human)) [%] | residual activity (AKT3 (human)) [%] | residual activity (ERBB4 (human)) [%] | other results
1 | NC(=O)c1cccc(-c2cc(Nc3ccc(OC(F)(F)F)cc3)ncn2)c1 | 98 | 102 | 94.7 | 98.8 | 98.9 | 95 | 95.4 | 102 | 91.4 | 139 | 104 | 99.1 | 100 | 102 | 89.5 | 99.3 | 91 | 109 | 93.5 | 85.3 | residual activity (NUAK1 (human)): 96.7%; residual activity (EGFR (human)): 96.6%; residual activity (TAOK3 (human)): 107%; residual activity (INSRR (human)): 90.7%; residual activity (CAMK1D (human)): 105%; residual activity (PTK6 (human)): 94.5%; residual activity (RPS6KA1 KD1 KD2 (human)): 92.7%; residual activity (PAK6 (human)): 102%; residual activity (DYRK2 (human)): 78.7%; residual activity (CSNK1A1 (human)): 103%; residual activity (PHKG1 (human)): 99.2%; residual activity (GRK6 (human)): 101%; residual activity (NEK1 (human)): 89.6%; residual activity (GRK7 (human)): 97.1%; residual activity (CAMK2D (human)): 90.8%; residual activity (CSNK1G2 (human)): 89.5%
2 | CN(C)c1ccc(/C=C2\C(=O)Nc3ccccc32)cc1 | 111 | 106 | 97.3 | 98.7 | 105 | 93.4 | 90.5 | 103 | 99.7 | 103 | 82.9 | 100 | 95.3 | 86.5 | 96.7 | 101 | 102 | 104 | 103 | 97.7 | residual activity (NUAK1 (human)): 80.4%; residual activity (EGFR (human)): 92.1%; residual activity (CDK7 CCNH MNAT1 (human)): 99.4%; residual activity (TAOK3 (human)): 95.1%; residual activity (INSRR (human)): 94.5%; residual activity (CAMK1D (human)): 98.8%; residual activity (PTK6 (human)): 98.8%; residual activity (RPS6KA1 KD1 KD2 (human)): 78.4%; residual activity (PAK6 (human)): 96.9%; residual activity (DYRK2 (human)): 100%; residual activity (CSNK1A1 (human)): 105%; residual activity (PHKG1 (human)): 99.1%; residual activity (GRK6 (human)): 102%; residual activity (NEK1 (human)): 112%; residual activity (GRK7 (human)): 100%; residual activity (CAMK2D (human)): 96.4%; residual activity (CSNK1G2 (human)): 96.7%
3 | Cn1c2ccccc2c2c3c(c4c5ccccc5n(CCC#N)c4c21)CNC3=O | 105 | 97.8 | 20.8 | 65.2 | 20.2 | 102 | 18 | 81.1 | 69 | 96.4 | 94.5 | 3.88 | 100 | 77.7 | 62.8 | 89.9 | 13.3 | 89.1 | 85.3 | 100 | residual activity (NUAK1 (human)): 3.86%; residual activity (CDK7 CCNH MNAT1 (human)): 84.6%; residual activity (INSRR (human)): 82.5%; residual activity (CAMK1D (human)): 82.4%; residual activity (PTK6 (human)): 38.7%; residual activity (RPS6KA1 KD1 KD2 (human)): 9.7%; residual activity (PAK6 (human)): 20.4%; residual activity (DYRK2 (human)): 48.9%; residual activity (CSNK1A1 (human)): 75.4%; residual activity (PHKG1 (human)): 1.76%; residual activity (GRK6 (human)): 44.4%; residual activity (NEK1 (human)): 62.9%; residual activity (GRK7 (human)): 37.9%; residual activity (CAMK2D (human)): 20.3%; residual activity (CSNK1G2 (human)): 105%
4 | O=C1NC(=O)c2c1c1c3ccccc3[nH]c1n1cncc21 | 63.8 | 94.4 | 36.7 | 76.7 | 102 | 100 | 35 | 82.6 | 79 | 96.7 | 96 | 77.2 | 99.8 | 86.1 | 48.4 | 92.7 | 89.4 | 94.4 | 94.3 | 102 | residual activity (NUAK1 (human)): 12.1%; residual activity (EGFR (human)): 92.7%; residual activity (CDK7 CCNH MNAT1 (human)): 92.3%; residual activity (TAOK3 (human)): 66.9%; residual activity (INSRR (human)): 20.7%; residual activity (CAMK1D (human)): 91.9%; residual activity (PTK6 (human)): 89%; residual activity (RPS6KA1 KD1 KD2 (human)): 31.1%; residual activity (PAK6 (human)): 85.5%; residual activity (DYRK2 (human)): 64.1%; residual activity (CSNK1A1 (human)): 51.6%; residual activity (PHKG1 (human)): 70.8%; residual activity (GRK6 (human)): 82.1%; residual activity (NEK1 (human)): 75.2%; residual activity (GRK7 (human)): 96.2%; residual activity (CAMK2D (human)): 36.7%; residual activity (CSNK1G2 (human)): 63.4%
5 | COc1ccc(Cl)cc1NC(=O)Nc1cc(C)nc2ccccc12 | 102 | 101 | 102 | 93.6 | 99.3 | 100 | 90.3 | 97.2 | 103 | 110 | 86 | 93.2 | 98.2 | 93.2 | 81.6 | 98.8 | 98.2 | 109 | 103 | 97.8 | residual activity (EGFR (human)): 98%; residual activity (CDK7 CCNH MNAT1 (human)): 101%; residual activity (TAOK3 (human)): 105%; residual activity (INSRR (human)): 100%; residual activity (CAMK1D (human)): 99.9%; residual activity (PTK6 (human)): 101%; residual activity (RPS6KA1 KD1 KD2 (human)): 77.8%; residual activity (PAK6 (human)): 96.5%; residual activity (CSNK1A1 (human)): 101%; residual activity (PHKG1 (human)): 102%; residual activity (GRK6 (human)): 105%; residual activity (NEK1 (human)): 96.3%; residual activity (GRK7 (human)): 101%; residual activity (CAMK2D (human)): 98.2%; residual activity (CSNK1G2 (human)): 98.5%
